For data set [1] the following is noted: mouse, in vivo. The protocol:
^11C-choline, ^11C-D4-choline (˜18.5 MBq) and ^18F-D4-choline (˜3.7 MBq) were each injected via the tail vein of anaesthetized BALB/c nude mice. The mice were maintained under anesthesia and sacrificed by exsanguination via cardiac puncture at 2, 15, 30 or 60 min post radiotracer injection to obtain blood, plasma, heart, lung, liver, kidney and muscle. Tissue radioactivity was determined on a gamma counter (Cobra II Auto-Gamma counter, Packard Biosciences Co, Pangbourne, UK) and decay corrected. Data were expressed as percent injected dose per gram of tissue.
Time course biodistribution was performed in non-tumor-bearing male nude mice with ^11C-choline, ^11C-D4-choline and ^18F-D4-choline tracers.

Data set [2] has as its system HCT116 tumors. Set-up: AUC: unit not given beside the values. Here is the method: (§1) Dynamic ^11C-choline, ^11C-D4-choline and ^18F-D4-choline imaging scans were carried out on a dedicated small animal PET scanner (Siemens Inveon PET module, Siemens Medical Solutions USA, Inc., Malvem, Pa., USA) following a bolus i.v. injection in tumor-bearing mice of either ˜3.7 MBq for ^18F studies, or ˜18.5 MBq for ^11C. Dynamic scans were acquired in list mode format over 60 min. The acquired data were then sorted into 0.5 mm sinogram bins and 19 time frames for image reconstruction (4×15 s, 4×60 s, and 11×300 s), which was done by filtered back projection. For input function analysis, data were sorted into 25 time frames for image reconstruction (8×5 s, 1×20 s, 4×40 s, 1×80 s, and 11×300 s). The Siemens Inveon Research Workplace software was used for visualization of radiotracer uptake in the tumor; 30 to 60 min cumulative images of the dynamic data were employed to define 3-dimensional (3D) regions of interest (ROIs). Arterial input function was estimated as follows: a single voxel 3D ROI was manually drawn in the center of the heart cavity using 2 to 5 min cumulative images. Care was taken to minimize ROI overlap with the myocardium. The count densities were averaged for all ROIs at each time point to obtain a time versus radioactivity curve (TAC). Tumor TACs were normalized to injected dose, measured by a VDC-304 dose calibrator (Veenstra Instruments, Joure, The Netherlands), and expressed as percentage injected dose per mL tissue. The area under the TAC, calculated as the integral of % ID/mL from 0-60 min, and the normalized uptake of radiotracer at 60 min (% ID/mL60) were also used for comparisons.
(§2) A 2-tissue irreversible compartmental model was employed to fit the TACs, as has been previously established for ^11C-choline (Kenny L M, Contractor K B, Hinz R, et al. Reproducibility of [11C]choline-positron emission tomography and effect of trastuzumab. Clin Cancer Res. Aug. 15 2010; 16(16):4236-4245; and Sutinen E, Nurmi M, Roivainen A, et al. Kinetics of [(11)C]choline uptake in prostate cancer: a PET study. Eur J Nucl Med Mol. Imaging. March 2004; 31(3):317-324). An estimate of the whole blood TAC (wbTAC(t)) was derived from the PET image itself, as described above. […] Therefore it was fitted with a sum of 3 exponentials from the peak on and the fitted function was used as input function in the kinetic modeling (after metabolite correction, see below). […] The pf values were fitted to a sum of two exponentials with the constraint pf(t=0)=1 to obtain the function pf(t). The parent whole blood TAC wbTACPAR(t) was then computed by multiplying wbTAC(t) and pf(t) and used as input function to estimate the parameters K1 (mL/cm^3/min), k2 (1/min), k3 (1/min) and Vb (unitless). The steady state net irreversible uptake rate constant Ki (mL/cm^3/min) was calculated from the estimated microparameters as K1k3/(k2+k3).

Data set [3] concerns malignant melanoma A375 tumors. Set-up: AUC: unit not given beside the values. The protocol:
as §1, §2

Data set [4] has as its system human melanoma (A375), prostate (PC3-M) and colon (HCT116) cancer cell lines. Briefly: In vitro 18F-D4-choline uptake in cancer cell lines. Type of data set: cell-based. Conditions: the three cell lines over 30 min. The protocol:
Uptake was measured in vehicle-treated (closed symbols) and hemicholinium-3-treated cells (5 mM; open symbols). Mean values+SEM are shown (n=3). Insert: representative western blot of choline kinase-α expression in the three cell lines. Actin was used as a loading control. Abbreviations: CKα, choline kinase alpha.
Cells (5×10^5) were plated into 6-well plates the night prior to analysis. On the day of the experiment, fresh growth medium, containing 40 μCi ^18F-D4-choline, was added to individual wells. Cell uptake was measured following incubation at 37° C. in a humidified atmosphere of 5% CO2 for 60 min. Plates were subsequently placed on ice, washed 3 times with ice-cold PBS and lysed in RIPA buffer (Thermo Fisher Scientific Inc., Rockford, Ill., USA; 1 mL, 10 min). […] Aliquots were snap-frozen and used for protein determination following radioactive decay using a BCA 96-well plate assay (Thermo Fisher Scientific Inc., Rockford, Ill., USA). Data were expressed as percent of total radioactivity per mg protein. For hemicholinium-3 treatment (5 mM; Sigma-Aldrich), cells were incubated with the compound 30 min prior to addition of radioactivity and for the duration of the uptake time course. […]

[5] abbreviates: HCT116 tumors, two-tissue irreversible model, n=3.
[6] abbreviates: HCT116 tumors, 2-tissue irreversible model.
Where [7] appears, read: A375 tumors, 2-tissue irreversible model.

With `[2H]C([2H])(O)C([2H])([2H])[N+](C)(C)C[18F]` [[^18F]D4-FCH, [^18F]fluoromethyl-[1,2-^2H4]-choline], in data set [1], the “increase in kidney retention compared to 11C-choline” value amounted to 3.3 fold and the urinary excretion result is recorded as “trend towards increased urinary excretion”. The “tumor tracer kinetics between 30 and 60 min” value in data set [2] (HCT116 tumors, dynamic PET) was “Slow wash-out of activity”. In addition, in data set [2] (setting [5]), the “decrease in Ki compared to 11C-D4-choline” value worked out at 49.2% and the “decrease in k3 compared to 11C-D4-choline” value stood at 75.2%. In addition, in data set [2] (setting [6]), the “K1′” value was 0.142 ± 0.027, the Ki was 0.008 ± 0.001 mL/cm^3/min and the k3 stood at 0.039 ± 0.003 min⁻¹. Further, in data set [2] (mouse, in vivo), the AUC worked out at 114.5 ± 7.0, the NUV60 came out at 1.81 ± 0.11 % ID/mL and the “tumor radiotracer uptake by PET” value is recorded as “no higher”. Further, in data set [3] (setting [7]), the “K1′” value is reported as 0.111 ± 0.021, the Ki came to 0.006 ± 0.002 mL/cm^3/min and the k3 was found to be 0.030 ± 0.008 min⁻¹. In data set [3] (mouse, in vivo), this molecule gave an AUC of 107.3 ± 7.7 and an NUV60 of 1.71 ± 0.14 % ID/mL. For the same molecule, in data set [4], the “in vitro uptake of 18F-D4-choline” value is reported as “similar”.

These data come from US20130183239A1, “ISOTOPIC CARBON CHOLINE ANALOGS” (IMPERIAL COLLEGE, priority 2010, published 2013).
